Like-named read-outs stand apart in the source and are kept apart here.
Tests used:
HeLa = assay: Antiproliferation assay (Alamar Blue), HeLa; assay type: cell-based; settings: Homo sapiens, 48 h, HeLa cell line, two days
Procedure: (§1) Cytotoxic activities of the compounds of interest were investigated with human cancer cell lines using the Alamar Blue assay. Cells (5 × 10^3 cells/well) were seeded into 96-well plates (Corning, 3603). Various sample concentrations (compounds of interest) were added to each well in duplicate, and incubated at 37°C with 5% CO2 for two days such that cells were in the exponential growth phase at the time of drug addition. Ten microliters of the Alamar Blue Solution (Invitrogen, Alamar Blue) were added to each well and incubated at 37°C for up to 2 hours in a humidified, 5% CO2 atmosphere. After incubation, florescence was measured using a microplate reader (Tecan) at an excitation wavelength of 540 nm and emission of 590 nm. Each inhibitory concentration was measured in triplicate, and averaged data points ± SD are shown. Statistical analysis was carried out with GraphPad Prism 5 and the fifty-percent effective concentration is expressed as EC50.

A549 = assay: Antiproliferation assay (Alamar Blue), A549; assay type: cell-based; settings: Homo sapiens; A549, lung cancer; read-out: EC50 of YL001
Procedure: as §1

U87 = assay: Antiproliferation assay (Alamar Blue), U87; assay type: cell-based; settings: Homo sapiens, U-87 MG; U87, brain cancer; read-out: EC50 of YL001
Procedure: as §1

MCF-7 = assay: Antiproliferation assay (Alamar Blue), MCF-7; assay type: cell-based; settings: Homo sapiens, MCF7; MCF-7, breast cancer; read-out: EC50 of YL001
Procedure: as §1

AGS = assay: Antiproliferation assay (Alamar Blue), AGS; assay type: cell-based; settings: Homo sapiens, stomach cancer, read-out: EC50 of YL001
Procedure: as §1

HT1080 = assay: Antiproliferation assay (Alamar Blue), HT1080; assay type: cell-based, Human; settings: read-out: EC50 of YL001
Procedure: as §1

MCF10A = assay: Antiproliferation assay, normal breast cell line MCF10A; assay type: cell-based
Procedure: as §1

HeLa cells = assay: Monopolar spindle phenotype, high content imaging; assay type: cell-based; settings: Homo sapiens, 8 hours, analyzed with Columbus, read-out: EC50 for monopolar spindles
Procedure: HeLa cells (5 × 10^3 cells/well) were seeded in 96-well plates (Corning, 3603). Drugs were diluted appropriately in medium from 10 mM stocks in 100% DMSO and added to the cells. Following 8 hours incubation with drugs, cells were fixed with 4% paraformaldehyde (20 minutes at room temperature), permeabilized with PBST (0.5% Triton X-100 in PBS) for 15 minutes, and washed before blocking. Cells were blocked with 4% BSA for at least 30 minutes at room temperature and stained with anti-β-tubulin monoclonal antibodies (Sigma) at 400-fold dilution for 1 hour with Alexafluor 488-conjugated goat anti-mouse secondary antibodies (Invitrogen) at 300-fold dilution for 1 hour. DNA was detected with 4′,6-diamidino-2-phenylindole dihydrochloride (DAPI). Actin was detected with Phalloidin. High content screening (Perkin Elmer Operetta) was used to photograph stained cells at 40× magnification, and Columbus software was used for statistical analysis of the percentage of mitotic cells with monopolar spindles present in treated cells over the total number of cells in mitosis counted after 8 hours incubation with drugs.

HCT 116 = assay: Cell cycle analysis by flow cytometry; assay type: cell-based, Human; settings: HCT 116, 8 hours treatment with 50 μM
[1] = Dose range testing in healthy mice without tumor; assay type: in vivo; settings: healthy B6 mice without tumor; taking into consideration the solubility
Pharmacokinetic study = assay type: in vivo; settings: BALB/c nude, mouse, plasma, ip; 200 mg/kg intraperitoneally, single dose, HeLa xenograft nude mice
Procedure: A HPLC-MS/MS method was developed for single-dose pharmacokinetic (PK) study of YL001 in HeLa xenograft BALB/c nude mice. YL001 was administered intraperitoneally at a dose of 200 mg/kg. Blood samples were then collected by enucleating eyeballs at 0.083, 0.167, 0.333, 0.5, 1, 2, 6, 12, 24 hours in heparinized polypropylene tubes. Three mice were sacrificed at each time point. Samples were centrifuged immediately at 4000 r/min for 20 min to separate plasma. The final sample for HPLC-MS/MS detection by QTRAP 6500 (AB Sciex, USA) was a mixture (plasma: H2O: methanol = 1:1:8). All individual data were pooled together to further perform PK analysis. DAS 2.1.2 were used to estimate PK parameters by non-compartmental analysis.

[2] = tested on: human and rodent cancer cell lines; assay: Antiproliferative activity over the panel of 15 cancer cell lines; assay type: cell-based; settings: 15 cell lines tested, read-out: EC50 values predominantly in the range
Procedure: as §1

Cc1ccc(-n2nnnc2/C(=C/N(C)C)C(=O)c2cccc(C(F)(F)F)c2)cc1 [YL001, (Z)-3-(dimethylamino)-2-(1-(p-tolyl)-1H-tetrazol-5-yl)-1-(3-(trifluoromethyl)phenyl)prop-2-en-1-one]
EC50 (HeLa): 14.3 ± 0.78 µM | EC50 (A549): 22.8 ± 0.72 µM | EC50 (U87): 26.2 ± 0.12 µM | EC50 (MCF-7): 14.9 ± 2.57 µM | EC50 (AGS): 20.2 ± 0.01 µM | EC50 (HT1080; HT1080, fibrosarcoma): 76.2 ± 0.77 µM | EC50 (HT1080; Homo sapiens, HT-1080, HT1080, fibrosarcoma): > 70 µM | Therapeutic window (MCF10A): > 6.7 | EC50 (MCF10A; Homo sapiens, MCF-10A, MCF10A, breast normal cell, read-out: EC50 of YL001): > 100 µM | EC50 (HeLa cells): 15.3 µM | percentage of cells with 4N DNA content (HCT 116): over 80% | maximal therapeutic dose [1]: 200 mg/kg | half-life (Pharmacokinetic study): 5.3 h | EC50 [2]: 5 to 20 µM

— article PMC5522084, “Eg5 inhibitor YL001 induces mitotic arrest and inhibits tumor proliferation” (Oncotarget, 2017)
